Experimental data reported in patent US10959428B2, “Hematophagous arthropod repellent composition” (WOOJUNG BIO INC., priority 2017, dated 2021).
Where “and” joins values, the source holds several entries; their conditions need not be identical. Equal values may be shown once.

Key:
adult Aedes aegypti = experiment: cage-in-arm test, complete protection time (CPT); format: in vivo; details: 4 mg, adult Aedes aegypti
Experimental: For determining the repellency of prepared samples against adults of Aedes aegypti and Aedes albopicus, a cage-in-arm test was carried out as a method for exposure to skin. Namely, on a back of the hand of a rubber glove, a hole with diameter of 5 cm was created, and, onto an exposed back of the testees, various samples prepared by dissolution in 100 μl of ethanol were applied, and then the skin test was carried out. The testees were healthy males between the ages of 21 and 40. The control group was treated with 100 μl of ethanol only. Female adults (5 to 8 day old) of Aedes aegypti or Aedes albopicus (250 to 300 mosquitoes) were added to a cage for growing adult mosquitoes (25×25×25 cm^3), and adapted to the indoor conditions for 12 to 24 hours before starting the test. When the upper arm of the control group is exposed for 1 minute and at least 6 mosquitoes sit on the upper arm or show a bloodsucking behavior, it was determined as sufficient biting pressure, and then the repellency test was carried out. […] The time period between the time point with initial treatment of a material and the time point at which 2 or more mosquitoes continuously sit on the treatment area or show the bloodsucking behavior was defined as complete protection time (CPT). Furthermore, for obtaining the repellency with regard to concentration, exposure was made for a constant time period regardless of the above and the repellency was calculated by using the following formula. Accordingly, the effect was compared among each test samples. All tests were carried out in triplicate. Repellency %=(Number of insects showing bloodsucking behavior in non-treatment group−Number of insects showing bloodsucking behavior in treatment group)/Number of insects showing bloodsucking behavior in non-treatment group)×100 <Tick Repellency>

adult Aedes albopicus = experiment: cage-in-arm test, repellency and CPT; format: in vivo, Aedes albopictus
Experimental: For determining the repellency of prepared samples against adults of Aedes aegypti and Aedes albopicus, a cage-in-arm test was carried out as a method for exposure to skin. Namely, on a back of the hand of a rubber glove, a hole with diameter of 5 cm was created, and, onto an exposed back of the testees, various samples prepared by dissolution in 100 μl of ethanol were applied, and then the skin test was carried out. The testees were healthy males between the ages of 21 and 40. The control group was treated with 100 μl of ethanol only. Female adults (5 to 8 day old) of Aedes aegypti or Aedes albopicus (250 to 300 mosquitoes) were added to a cage for growing adult mosquitoes (25×25×25 cm^3), and adapted to the indoor conditions for 12 to 24 hours before starting the test. When the upper arm of the control group is exposed for 1 minute and at least 6 mosquitoes sit on the upper arm or show a bloodsucking behavior, it was determined as sufficient biting pressure, and then the repellency test was carried out. With an interval of 30 minutes, by exposing the upper arm, which has been treated with the above composition, for 3 minutes, and, when the adult mosquito sits on the arm for 2 seconds or longer or at least two mosquitoes showing the behavior of mouth injection to skin or direct bloodsucking are found from consecutive tests, the test was stopped. The time period between the time point with initial treatment of a material and the time point at which 2 or more mosquitoes continuously sit on the treatment area or show the bloodsucking behavior was defined as complete protection time (CPT). Furthermore, for obtaining the repellency with regard to concentration, exposure was made for a constant time period regardless of the above and the repellency was calculated by using the following formula. Accordingly, the effect was compared among each test samples. All tests were carried out in triplicate. Repellency %=(Number of insects showing bloodsucking behavior in non-treatment group−Number of insects showing bloodsucking behavior in treatment group)/Number of insects showing bloodsucking behavior in non-treatment group)×100 <Tick Repellency>
For reference, comparison of the mosquito repellency was made by using clove oil as a natural positive control group and DEET as a synthetic positive control group.
To determine the repellency of plant essential oil alone against adult Aedes albopicus and nymphs of Haemaphysalis longicornis, the cage-in-arm test and finger-tip method were carried out, in the same manner as Examples 1-2 and 1-3, with each of 16 kinds of plant essential oil of Table 4.

[1] = tested on: nymphs of Haemaphysalis longicornis; experiment: finger-tip method, tick repellency; format: in vivo
Experimental: By having the outdoor group of Haemaphysalis longicornis collected from the region around Bongdam-Myon, Hwasung-Shi, Kunggi-Do, South Korea as a subject, the repellency against ticks was determined by employing a finger-tip method. In 50 μl of ethanol, each sample was dissolved in an amount of 2 mg, and then treated on the second nodule of a third finger. […] All tests were carried out in triplicate. Repellency %=(Number of insects showing bloodsucking behavior in non-treatment group−Number of insects showing bloodsucking behavior in treatment group)/Number of insects showing bloodsucking behavior in non-treatment group)×100 […]

COc1ccc(C=O)cc1OC [3,4-Dimethoxybenzaldehyde, 3,4-dimethoxybenzaldehyde]
CPT (adult Aedes aegypti): 70 min | CPT (adult Aedes aegypti; listed as 3,4-demethoxybenzaldehyde): 70 min | Repellency (mean ± SE, %) (adult Aedes albopicus; 0.03 mg/cm^2, 10 minutes): 100 ± 0% | Repellency (mean ± SE, %) (adult Aedes albopicus; 0.03 mg/cm^2, 30 minutes): 75 ± 7.1% | Repellency (mean ± SE, %) (adult Aedes albopicus; 0.03 mg/cm^2, 60 minutes): 54 ± 4.3% | Repellency (mean ± SE, %) (adult Aedes albopicus; 0.10 mg/cm^2, 10 minutes): 100 ± 0% | Repellency (mean ± SE, %) (adult Aedes albopicus; 0.10 mg/cm^2, 30 minutes): 93 ± 4.3% | Repellency (mean ± SE, %) (adult Aedes albopicus; 0.10 mg/cm^2, 60 minutes): 90 ± 4.1% | Repellency (mean ± SE, %) (adult Aedes albopicus; 0.10 mg/cm^2, 90 minutes): 83 ± 8.8% | Repellency (mean ± SE, %) (adult Aedes albopicus; 0.10 mg/cm^2, 120 minutes): 58 ± 5.5% | Repellency (mean ± SE, %) (adult Aedes albopicus; 0.20 mg/cm^2, 10 minutes): 100 ± 0% | Repellency (mean ± SE, %) (adult Aedes albopicus; 0.20 mg/cm^2, 30 minutes): 100 ± 0% | Repellency (mean ± SE, %) (adult Aedes albopicus; 0.20 mg/cm^2, 60 minutes): 99 ± 2.3% | Repellency (mean ± SE, %) (adult Aedes albopicus; 0.20 mg/cm^2, 90 minutes): 94 ± 4.6% | Repellency (mean ± SE, %) (adult Aedes albopicus; 0.20 mg/cm^2, 120 minutes): 91 ± 1.7% | Repellency (mean ± SE, %) (adult Aedes albopicus; 0.20 mg/cm^2, 150 minutes): 83 ± 2.6% | Repellency (mean ± SE, %) (adult Aedes albopicus; 0.20 mg/cm^2, 180 minutes): 65 ± 6.0% | Repellency (mean ± SE, %) (adult Aedes albopicus; 0.25 mg/cm^2, 10 minutes): 100 ± 0% | Repellency (mean ± SE, %) (adult Aedes albopicus; 0.25 mg/cm^2, 30 minutes): 100 ± 0% | Repellency (mean ± SE, %) (adult Aedes albopicus; 0.25 mg/cm^2, 60 minutes): 100 ± 0% | Repellency (mean ± SE, %) (adult Aedes albopicus; 0.25 mg/cm^2, 90 minutes): 100 ± 0% | Repellency (mean ± SE, %) (adult Aedes albopicus; 0.25 mg/cm^2, 120 minutes): 100 ± 0% | Repellency (mean ± SE, %) (adult Aedes albopicus; 0.25 mg/cm^2, 150 minutes): 95 ± 3.2% | Repellency (mean ± SE, %) (adult Aedes albopicus; 0.25 mg/cm^2, 180 minutes): 58 ± 4.4% | CPT (adult Aedes albopicus; 4 mg, adult Aedes albopicus): 50 min | Repellency (mean ± SE, %) ([1]; 0.01 mg/cm^2, 15 min.): 100 ± 0% | Repellency (mean ± SE, %) ([1]; 0.01 mg/cm^2, 30 min.): 100 ± 0% | Repellency (mean ± SE, %) ([1]; 0.01 mg/cm^2, 60 min.): 98 ± 2.5% | Repellency (mean ± SE, %) ([1]; 0.01 mg/cm^2, 90 min.): 98 ± 2.5% | Repellency (mean ± SE, %) ([1]; 0.01 mg/cm^2, 120 min.): 90 ± 5.8% | Repellency (mean ± SE, %) ([1]; 0.01 mg/cm^2, 150 min.): 95 ± 2.9% | Repellency (mean ± SE, %) ([1]; 0.01 mg/cm^2, 180 min.): 95 ± 2.9% | Repellency (mean ± SE, %) ([1]; 0.01 mg/cm^2, 210 min.): 73 ± 10.3% | Repellency (mean ± SE, %) ([1]; 0.01 mg/cm^2, 240 min.): 65% and 65 ± 2.9% | Repellency (mean ± SE, %) ([1]; 0.01 mg/cm^2, 270 min.): 43 ± 4.8% | Repellency (mean ± SE, %) ([1]; 0.02 mg/cm^2, 15 min.): 100 ± 0% | Repellency (mean ± SE, %) ([1]; 0.02 mg/cm^2, 30 min.): 100 ± 0% | Repellency (mean ± SE, %) ([1]; 0.02 mg/cm^2, 60 min.): 100 ± 0% | Repellency (mean ± SE, %) ([1]; 0.02 mg/cm^2, 90 min.): 98 ± 2.5% | Repellency (mean ± SE, %) ([1]; 0.02 mg/cm^2, 120 min.): 98 ± 2.5% | Repellency (mean ± SE, %) ([1]; 0.02 mg/cm^2, 150 min.): 100 ± 0% | Repellency (mean ± SE, %) ([1]; 0.02 mg/cm^2, 180 min.): 98 ± 2.5% | Repellency (mean ± SE, %) ([1]; 0.02 mg/cm^2, 210 min.): 95 ± 5.0% | Repellency (mean ± SE, %) ([1]; 0.02 mg/cm^2, 240 min.): 85 ± 2.9% | Repellency (mean ± SE, %) ([1]; 0.02 mg/cm^2, 270 min.): 63 ± 4.8% | Repellency (mean ± SE, %) ([1]; 0.02 mg/cm^2, 300 min.): 48 ± 2.5% | repellency ([1]; 0.02 mg/cm^2 or higher, 4 hours after the treatment): ≥ 78% | Repellency (mean ± SE, %) ([1]; 0.05 mg/cm^2, 15 min.): 100 ± 0% | Repellency (mean ± SE, %) ([1]; 0.05 mg/cm^2, 30 min.): 100 ± 0% | Repellency (mean ± SE, %) ([1]; 0.05 mg/cm^2, 60 min.): 100 ± 0% | Repellency (mean ± SE, %) ([1]; 0.05 mg/cm^2, 90 min.): 98 ± 2.5% | Repellency (mean ± SE, %) ([1]; 0.05 mg/cm^2, 120 min.): 98 ± 2.5% | Repellency (mean ± SE, %) ([1]; 0.05 mg/cm^2, 150 min.): 85 ± 2.9% | Repellency (mean ± SE, %) ([1]; 0.05 mg/cm^2, 180 min.): 83 ± 6.3% | Repellency (mean ± SE, %) ([1]; 0.05 mg/cm^2, 210 min.): 85 ± 6.5% | Repellency (mean ± SE, %) ([1]; 0.05 mg/cm^2, 240 min.): 78 ± 4.8% | Repellency (mean ± SE, %) ([1]; 0.05 mg/cm^2, 270 min.): 70 ± 4.1% | Repellency (mean ± SE, %) ([1]; 0.05 mg/cm^2, 300 min.): 50 ± 4.1% | Repellency (mean ± SE, %) ([1]; 0.09 mg/cm^2, 15 min.): 100 ± 0% | Repellency (mean ± SE, %) ([1]; 0.09 mg/cm^2, 30 min.): 100 ± 0% | Repellency (mean ± SE, %) ([1]; 0.09 mg/cm^2, 60 min.): 100 ± 0% | Repellency (mean ± SE, %) ([1]; 0.09 mg/cm^2, 90 min.): 98 ± 2.5% | Repellency (mean ± SE, %) ([1]; 0.09 mg/cm^2, 120 min.): 100 ± 0% | Repellency (mean ± SE, %) ([1]; 0.09 mg/cm^2, 150 min.): 100 ± 0% | Repellency (mean ± SE, %) ([1]; 0.09 mg/cm^2, 180 min.): 100 ± 0% | Repellency (mean ± SE, %) ([1]; 0.09 mg/cm^2, 210 min.): 98 ± 2.5% | Repellency (mean ± SE, %) ([1]; 0.09 mg/cm^2, 240 min.): 83 ± 2.5% | Repellency (mean ± SE, %) ([1]; 0.09 mg/cm^2, 270 min.): 73 ± 6.3% | Repellency (mean ± SE, %) ([1]; 0.09 mg/cm^2, 300 min.): 65 ± 2.9%

vanillin isobutyrate
CPT (adult Aedes aegypti): 45 min
